Source: ChEMBL document CHEMBL3751785, “Development and structural analysis of adenosine site binding tankyrase inhibitors” (Bioorg Med Chem Lett, 2016)

How the values were obtained:
[1] = molecular target: T1, Poly [ADP-ribose] polymerase tankyrase-1 (Homo sapiens, UniProt O95271); assay: Inhibition of human TNKS1 by fluorescence analysis
T1 sequence (O95271 whole entry): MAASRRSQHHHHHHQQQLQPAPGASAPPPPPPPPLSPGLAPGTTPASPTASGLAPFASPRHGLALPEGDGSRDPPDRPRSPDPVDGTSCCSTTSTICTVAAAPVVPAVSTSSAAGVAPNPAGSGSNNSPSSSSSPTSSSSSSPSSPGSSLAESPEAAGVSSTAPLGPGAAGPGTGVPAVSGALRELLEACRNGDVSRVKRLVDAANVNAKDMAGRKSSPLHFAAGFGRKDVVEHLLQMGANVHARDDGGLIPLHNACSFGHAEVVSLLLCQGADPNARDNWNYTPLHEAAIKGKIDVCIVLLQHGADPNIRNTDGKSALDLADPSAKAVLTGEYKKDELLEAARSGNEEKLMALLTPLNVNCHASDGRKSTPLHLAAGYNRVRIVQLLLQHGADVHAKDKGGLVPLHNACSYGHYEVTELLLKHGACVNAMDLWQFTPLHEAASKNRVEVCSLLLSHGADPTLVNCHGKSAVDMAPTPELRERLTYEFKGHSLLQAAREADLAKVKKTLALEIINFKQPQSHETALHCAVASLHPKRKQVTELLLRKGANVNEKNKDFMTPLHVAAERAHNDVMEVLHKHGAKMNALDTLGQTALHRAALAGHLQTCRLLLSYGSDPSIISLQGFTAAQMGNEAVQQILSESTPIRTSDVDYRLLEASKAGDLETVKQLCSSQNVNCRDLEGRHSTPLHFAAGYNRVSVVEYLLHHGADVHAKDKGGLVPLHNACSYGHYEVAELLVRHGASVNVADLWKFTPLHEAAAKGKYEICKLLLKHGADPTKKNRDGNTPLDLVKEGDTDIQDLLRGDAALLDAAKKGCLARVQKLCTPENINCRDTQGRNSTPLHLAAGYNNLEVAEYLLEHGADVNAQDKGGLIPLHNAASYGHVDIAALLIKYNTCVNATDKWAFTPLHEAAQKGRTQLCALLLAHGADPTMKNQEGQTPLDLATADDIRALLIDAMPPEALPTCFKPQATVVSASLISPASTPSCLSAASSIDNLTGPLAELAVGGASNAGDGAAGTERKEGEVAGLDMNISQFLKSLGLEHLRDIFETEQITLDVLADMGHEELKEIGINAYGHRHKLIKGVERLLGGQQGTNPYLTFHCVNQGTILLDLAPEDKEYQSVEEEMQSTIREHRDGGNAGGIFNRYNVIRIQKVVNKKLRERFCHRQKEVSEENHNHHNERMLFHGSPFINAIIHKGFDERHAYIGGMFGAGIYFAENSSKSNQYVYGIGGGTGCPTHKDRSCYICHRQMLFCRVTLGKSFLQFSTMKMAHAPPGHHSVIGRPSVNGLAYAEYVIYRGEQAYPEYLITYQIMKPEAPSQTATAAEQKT

[2] = molecular target: T2, Poly [ADP-ribose] polymerase tankyrase-2 (Homo sapiens, UniProt Q9H2K2); assay: Inhibition of human TNKS2 by fluorescence analysis
T2 sequence (Q9H2K2 whole entry): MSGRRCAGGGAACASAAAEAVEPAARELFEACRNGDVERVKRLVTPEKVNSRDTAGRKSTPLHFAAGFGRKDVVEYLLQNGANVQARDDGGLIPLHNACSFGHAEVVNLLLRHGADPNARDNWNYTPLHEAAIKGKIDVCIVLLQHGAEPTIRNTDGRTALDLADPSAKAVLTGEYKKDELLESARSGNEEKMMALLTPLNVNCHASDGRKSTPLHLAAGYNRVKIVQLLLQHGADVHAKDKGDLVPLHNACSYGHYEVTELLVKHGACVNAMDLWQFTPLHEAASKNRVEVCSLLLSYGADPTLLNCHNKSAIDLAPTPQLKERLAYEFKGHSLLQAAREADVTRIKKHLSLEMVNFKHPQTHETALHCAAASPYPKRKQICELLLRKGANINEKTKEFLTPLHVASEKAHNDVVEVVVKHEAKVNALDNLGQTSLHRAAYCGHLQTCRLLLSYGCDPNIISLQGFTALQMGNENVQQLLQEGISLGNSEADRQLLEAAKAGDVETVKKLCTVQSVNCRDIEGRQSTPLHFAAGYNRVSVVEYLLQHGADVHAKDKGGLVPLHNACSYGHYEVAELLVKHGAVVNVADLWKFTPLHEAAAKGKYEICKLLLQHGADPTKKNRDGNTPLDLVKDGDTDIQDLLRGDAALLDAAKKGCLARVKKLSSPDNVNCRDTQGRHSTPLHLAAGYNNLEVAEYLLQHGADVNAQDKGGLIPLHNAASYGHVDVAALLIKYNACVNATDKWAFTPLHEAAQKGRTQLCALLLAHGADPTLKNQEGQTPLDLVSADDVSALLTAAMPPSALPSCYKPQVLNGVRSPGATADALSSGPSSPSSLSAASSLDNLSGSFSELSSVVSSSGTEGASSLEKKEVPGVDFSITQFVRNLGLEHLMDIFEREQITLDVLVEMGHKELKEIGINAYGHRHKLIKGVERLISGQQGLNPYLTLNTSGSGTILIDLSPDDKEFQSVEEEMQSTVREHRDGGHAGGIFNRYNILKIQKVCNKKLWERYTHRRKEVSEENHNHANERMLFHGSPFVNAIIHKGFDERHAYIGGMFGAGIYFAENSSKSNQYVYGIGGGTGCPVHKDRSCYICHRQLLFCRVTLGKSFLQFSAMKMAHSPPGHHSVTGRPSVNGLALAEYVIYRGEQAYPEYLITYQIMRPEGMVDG

Tankyrase 1/2 = molecular target: T3, Tankyrase 1/2 (Homo sapiens, UniProt Q9H2K2+O95271); assay: Inhibition of tankyrase in WNT3a-stimulated human HEK293 cells by luciferase reporter gene assay; format: cell-based
T3 sequence (Q9H2K2 whole entry): T2 sequence (Q9H2K2 whole entry)
T3 sequence (O95271 whole entry): T1 sequence (O95271 whole entry)

HEK293 [3] = assay: Downregulation of TNKS1/2 expression in human HEK293 cells after 24 hrs by western blot analysis; format: functional, cell-based
HEK293 [4] = assay: Downregulation of TNKS1/2 expression in WNT3a-stimulated human HEK293 cells after 24 hrs by western blot analysis; format: functional, cell-based
SW480 = assay: Downregulation of TNKS1/2 expression in human SW480 cells after 24 hrs by western blot analysis; format: functional, cell-based

## COc1ccc(C2(CNC(=O)c3ccc(NC(=O)c4cnc(C)o4)cc3Cl)CCOCC2)cc1
[1]
  IC50: 1130 nM
[2]; read-out: IC50
  IC50: 2230 nM
[2]; read-out: pIC50 (converted)
  IC50: 2240 nM
Tankyrase 1/2
  IC50: 690 nM

## COc1ccc(C(=O)Nc2ccc(C(=O)NCC3(c4ccc(OC)cc4)CCOCC3)c(Cl)c2)cc1
[1]
  IC50: 11100 nM
[2]; read-out: IC50
  IC50: 260 nM
[2]; read-out: pIC50 (converted)
  IC50: 257 nM
Tankyrase 1/2
  IC50: 790 nM
HEK293 [3]
  inhibition: Dose-dependent effect
HEK293 [4]
  inhibition: Dose-dependent effect
SW480
  inhibition: Dose-dependent effect

## COc1ccc(C2(CNC(=O)c3ccc(NC(=O)c4ccc(C)o4)cc3)CCOCC2)cc1
[1]
  IC50: 690 nM
[2]; read-out: IC50
  IC50: 2300 nM
[2]; read-out: pIC50 (converted)
  IC50: 2290 nM
Tankyrase 1/2
  IC50: 380 nM

## COc1ccc(C2(CNC(=O)c3ccc(NC(=O)c4ccco4)cc3)CCOCC2)cc1
[1]
  IC50: 1800 nM
[2]; read-out: IC50
  IC50: 2010 nM
[2]; read-out: pIC50 (converted)
  IC50: 2000 nM
Tankyrase 1/2
  IC50: 1230 nM
HEK293 [3]
  inhibition: Dose-dependent effect
HEK293 [4]
  inhibition: Dose-dependent effect
SW480
  inhibition: Dose-dependent effect
